Laboratory results: ChEMBL document CHEMBL5096191 (J Med Chem, 2021)

Tests used:
Format in all cases: functional, cell-based
[1] = target: T1, Cannabinoid receptor 2 (Homo sapiens, UniProt P34972, V36M); assay: Partial agonist activity at CBR2 V361.35M mutant (unknown origin) expressed in HEK293T assessed as increase in ERK1/2 phosphorylation incubated for 7 mins by AlphaScreenSureFire method
[2] = target: T1, Cannabinoid receptor 2; assay: Partial agonist activity at CBR2 V361.35M mutant (unknown origin) expressed in HEK293T assessed as increase in picometer shifts of reflected light wavelengths by DMR assay
[3] = target: Cannabinoid receptor 2 (Homo sapiens, UniProt P34972, S285L); assay: Partial agonist activity at CBR2 S2857.39L mutant (unknown origin) expressed in HEK293T assessed as increase in ERK1/2 phosphorylation incubated for 7 mins in presence of cannabidiol by AlphaScreenSureFire method
Chain of Cannabinoid receptor 2 (Homo sapiens, UniProt P34972, S285L) (P34972 whole entry S285L): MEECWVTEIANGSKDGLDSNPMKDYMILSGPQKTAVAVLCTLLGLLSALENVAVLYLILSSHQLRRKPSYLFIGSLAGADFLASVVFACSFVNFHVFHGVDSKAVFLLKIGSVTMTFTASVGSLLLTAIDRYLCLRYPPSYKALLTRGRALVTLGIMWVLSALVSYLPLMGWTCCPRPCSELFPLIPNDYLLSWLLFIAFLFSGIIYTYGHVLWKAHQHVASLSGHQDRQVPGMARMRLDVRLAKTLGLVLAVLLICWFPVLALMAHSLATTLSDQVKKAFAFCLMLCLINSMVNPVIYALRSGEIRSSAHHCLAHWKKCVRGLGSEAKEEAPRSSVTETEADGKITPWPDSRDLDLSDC

[4] = target: T2, Cannabinoid receptor 2 (Homo sapiens, UniProt P34972); assay: Partial agonist activity at wild type CB2 receptor (unknown origin) stably expressed in HEK293T assessed as decrease in forskolin induced cAMP level preincubated for 15 mins followed by forskolin addition incubated for 15 mins by HTRF assay relative to control; settings: filed as partial agonist, time 30.0 min
T2 sequence (P34972 whole entry): as the sequence (P34972 whole entry S285L) above, with L285S counted along it

[5] = target: T2, Cannabinoid receptor 2; assay: Partial agonist activity at wild type CB2 receptor (unknown origin) expressed in HEK293T assessed as increase in picometer shifts of reflected light wavelengths in presence of cannabidiol by DMR assay relative to control; settings: filed as partial agonist
[6] = tested on: Cannabinoid receptor 2 (Homo sapiens), P34972 [V113M]; assay: Partial agonist activity at CBR2 V1133.32M mutant (unknown origin) stably expressed in HEK293T assessed as decrease in forskolin induced cAMP level preincubated for 15 mins followed by forskolin addition incubated for 15 mins in presence of cannabidiol by HTRF assay relative to control; settings: filed as partial agonist, time 30.0 min
Chain of Cannabinoid receptor 2 (Homo sapiens), P34972 [V113M] (P34972 whole entry V113M): as the sequence (P34972 whole entry S285L) above, with V113M, L285S counted along it

[7] = tested on: Cannabinoid receptor 2 (Homo sapiens), P34972 [S285L]; assay: Partial agonist activity at CBR2 S2857.39L mutant (unknown origin) expressed in HEK293T assessed as increase in picometer shifts of reflected light wavelengths by DMR assay relative to control; settings: filed as partial agonist
Chain of Cannabinoid receptor 2 (Homo sapiens), P34972 [S285L] (P34972 whole entry S285L): as the sequence (P34972 whole entry S285L) above

[8] = tested on: Cannabinoid receptor 2 (Homo sapiens), P34972 [V36M]; assay: Partial agonist activity at CBR2 V361.35M mutant (unknown origin) expressed in HEK293T assessed as increase in picometer shifts of reflected light wavelengths in presence of cannabidiol by DMR assay relative to control; settings: filed as partial agonist
Chain of Cannabinoid receptor 2 (Homo sapiens), P34972 [V36M] (P34972 whole entry V36M): as the sequence (P34972 whole entry S285L) above, with V36M, L285S counted along it

[9] = tested on: Cannabinoid receptor 2 (Homo sapiens), P34972 [S285L]; assay: Partial agonist activity at CBR2 S2857.39L mutant (unknown origin) expressed in HEK293T assessed as increase in picometer shifts of reflected light wavelengths in presence of cannabidiol by DMR assay relative to control; settings: filed as partial agonist
[10] = target: T1, Cannabinoid receptor 2; assay: Partial agonist activity at CBR2 V361.35M mutant (unknown origin) expressed in HEK293T assessed as increase in ERK1/2 phosphorylation incubated for 7 mins in presence of cannabidiol by AlphaScreenSureFire method
[11] = tested on: Cannabinoid receptor 2 (Homo sapiens), P34972 [V113M]; assay: Partial agonist activity at CBR2 V1133.32M mutant (unknown origin) expressed in HEK293T assessed as increase in ERK1/2 phosphorylation incubated for 7 mins in presence of cannabidiol by AlphaScreenSureFire method relative to control; settings: filed as partial agonist
[12] = tested on: Cannabinoid receptor 2 (Homo sapiens), P34972 [V36M]; assay: Partial agonist activity at CBR2 V361.35M mutant (unknown origin) stably expressed in HEK293T assessed as decrease in forskolin induced cAMP level preincubated for 15 mins followed by forskolin addition incubated for 15 mins by HTRF assay relative to control; settings: filed as partial agonist, time 30.0 min
[13] = tested on: Cannabinoid receptor 2 (Homo sapiens), P34972 [A282M]; assay: Partial agonist activity at CBR2 A2827.36M mutant (unknown origin) stably expressed in HEK293T assessed as decrease in forskolin induced cAMP level preincubated for 15 mins followed by forskolin addition incubated for 15 mins in presence of cannabidiol by HTRF assay relative to control; settings: filed as partial agonist, time 30.0 min
Chain of Cannabinoid receptor 2 (Homo sapiens), P34972 [A282M] (P34972 whole entry A282M): as the sequence (P34972 whole entry S285L) above, with A282M, L285S counted along it

[14] = tested on: Cannabinoid receptor 2 (Homo sapiens), P34972 [V113M]; assay: Partial agonist activity at CBR2 V1133.32M mutant (unknown origin) expressed in HEK293T assessed as increase in ERK1/2 phosphorylation incubated for 7 mins by AlphaScreenSureFire method relative to control; settings: filed as partial agonist
[15] = target: T2, Cannabinoid receptor 2; assay: Partial agonist activity at wild type CB2 receptor (unknown origin) stably expressed in HEK293T assessed as decrease in forskolin induced cAMP level preincubated for 15 mins followed by forskolin addition incubated for 15 mins in presence of cannabidiol by HTRF assay
[16] = target: T2, Cannabinoid receptor 2; assay: Partial agonist activity at wild type CB2 receptor (unknown origin) expressed in HEK293T assessed as increase in ERK1/2 phosphorylation incubated for 7 mins in presence of cannabidiol by AlphaScreenSureFire method
[17] = tested on: Cannabinoid receptor 2 (Homo sapiens), P34972 [A282M]; assay: Partial agonist activity at CBR2 A2827.36M mutant (unknown origin) expressed in HEK293T assessed as increase in picometer shifts of reflected light wavelengths by DMR assay relative to control; settings: filed as partial agonist
[18] = target: T3, Cannabinoid receptor 2 (Homo sapiens, UniProt P34972, A282M); assay: Partial agonist activity at CBR2 A2827.36M mutant (unknown origin) expressed in HEK293T assessed as increase in ERK1/2 phosphorylation incubated for 7 mins in presence of cannabidiol by AlphaScreenSureFire method
T3 sequence (P34972 whole entry A282M): as the sequence (P34972 whole entry S285L) above, with A282M, L285S counted along it

[19] = target: T4, Cannabinoid receptor 2 (Homo sapiens, UniProt P34972, V113M); assay: Partial agonist activity at CBR2 V1133.32M mutant (unknown origin) stably expressed in HEK293T assessed as decrease in forskolin induced cAMP level preincubated for 15 mins followed by forskolin addition incubated for 15 mins by HTRF assay
T4 sequence (P34972 whole entry V113M): as the sequence (P34972 whole entry S285L) above, with V113M, L285S counted along it

[20] = target: T1, Cannabinoid receptor 2; assay: Partial agonist activity at CBR2 V361.35M mutant (unknown origin) stably expressed in HEK293T assessed as decrease in forskolin induced cAMP level preincubated for 15 mins followed by forskolin addition incubated for 15 mins in presence of cannabidiol by HTRF assay
[21] = target: T2, Cannabinoid receptor 2; assay: Partial agonist activity at wild type CB2 receptor (unknown origin) expressed in HEK293T assessed as increase in ERK1/2 phosphorylation incubated for 7 mins in presence of cannabidiol by AlphaScreenSureFire method relative to control; settings: filed as partial agonist
[22] = target: T2, Cannabinoid receptor 2; assay: Partial agonist activity at wild type CB2 receptor (unknown origin) stably expressed in HEK293T assessed as decrease in forskolin induced cAMP level preincubated for 15 mins followed by forskolin addition incubated for 15 mins by HTRF assay
[23] = target: T1, Cannabinoid receptor 2; assay: Partial agonist activity at CBR2 V361.35M mutant (unknown origin) stably expressed in HEK293T assessed as decrease in forskolin induced cAMP level preincubated for 15 mins followed by forskolin addition incubated for 15 mins by HTRF assay
[24] = tested on: Cannabinoid receptor 2 (Homo sapiens), P34972 [A282M]; assay: Partial agonist activity at CBR2 A2827.36M mutant (unknown origin) expressed in HEK293T assessed as increase in ERK1/2 phosphorylation incubated for 7 mins by AlphaScreenSureFire method relative to control; settings: filed as partial agonist
[25] = target: T3, Cannabinoid receptor 2; assay: Partial agonist activity at CBR2 A2827.36M mutant (unknown origin) stably expressed in HEK293T assessed as decrease in forskolin induced cAMP level preincubated for 15 mins followed by forskolin addition incubated for 15 mins by HTRF assay
[26] = target: T4, Cannabinoid receptor 2; assay: Partial agonist activity at CBR2 V1133.32M mutant (unknown origin) expressed in HEK293T assessed as increase in ERK1/2 phosphorylation incubated for 7 mins by AlphaScreenSureFire method

T1 sequence (P34972 whole entry V36M): as the sequence (P34972 whole entry S285L) above, with V36M, L285S counted along it

**Q.** With `CCCC(C)(C)c1cc(O)c2c(c1)OC(C)(C)[C@@H]1CC=C(C)C[C@@H]21` as the molecule, how does the EC50 [1] read?
**A.** 31.6 nM

**Q.** What about the EC50 [2] of the same molecule?
**A.** 631 nM

**Q.** What about the EC50 [3] of the same molecule?
**A.** 31.6 nM

**Q.** And the Emax [4]?
**A.** 46%

**Q.** And the Emax [5]?
**A.** 117%

**Q.** And the Emax [6]?
**A.** 77.8%

**Q.** What about the Emax [7] of the same molecule?
**A.** 223%

**Q.** And the Emax [8]?
**A.** 200%

**Q.** What about the Emax [9] of the same molecule?
**A.** 165%

**Q.** What about the EC50 [10] of the same molecule?
**A.** 39.8 nM

**Q.** And the Emax [11]?
**A.** 216%

**Q.** What about the Emax [12] of the same molecule?
**A.** 56.7%

**Q.** And the Emax [13]?
**A.** 48.8%

**Q.** What about the Emax [14] of the same molecule?
**A.** 276%

**Q.** And the EC50 [15]?
**A.** 50.1 nM

**Q.** What about the EC50 [16] of the same molecule?
**A.** 7.94 nM

**Q.** And the Emax [17]?
**A.** 199%

**Q.** And the EC50 [18]?
**A.** 12.6 nM

**Q.** And the EC50 [19]?
**A.** 20 nM

**Q.** What about the EC50 [20] of the same molecule?
**A.** 15.8 nM

**Q.** And the Emax [21]?
**A.** 250%

**Q.** And the EC50 [22]?
**A.** 31.6 nM

**Q.** And the EC50 [23]?
**A.** 12.6 nM

**Q.** What about the Emax [24] of the same molecule?
**A.** 376%

**Q.** What about the EC50 [25] of the same molecule?
**A.** 12.6 nM

**Q.** What about the EC50 [26] of the same molecule?
**A.** 20 nM
